Patent publication US8519110B2, “mRNA cap analogs” (Board of Supervisors of Louisiana State University And …, priority 2008, dated 2013)
Where two headings read alike, the source gives them in different places.

Key:
eIF4E = eIF4E (Mus musculus, UniProt P63073); experiment: Binding affinity of cap analogs to eIF4E by fluorescence titration; conditions: equilibrium association constant; for Cap analog/eIF4E affinity (KAS): 20 °C, pH 7.2, ionic strength 150 mM
Method: Fluorescence titration measurements were carried out on an LS-50B or LS-55 spectrofluorometer (Perkin Elmer Co.) at 20.0±0.2° C. in 50 mM HEPES/KOH (pH 7.2), 0.5 mM EDTA, and 1 mM DTT, with ionic strength adjusted to 150 mM by addition of KCl. Various cap analogue solutions, of increasing concentration, were added in 1 μl aliquots to 1.4 ml of 0.1 or 0.2 μM protein solutions. Fluorescence intensities were measured with excitation at 280 nm or 295 nm with 2.2 nm bandwidth, and detection at 337 nm with 4 nm bandwidth and a 290-nm cut-off filter. The data were corrected for sample dilution and inner filter effects. Equilibrium association constants (Kas) were determined by fitting the theoretical dependence of fluorescence intensity on cap analog concentration to the experimental data, as otherwise described in A. Niedźwiecka et al., “Biophysical studies of eIF4E cap-binding protein: recognition of mRNA 5′ cap structure and synthetic fragments of eIF4G and 4E-BP1 proteins,” J. Mol. Biol., vol. 312, pp. 615-635 (2002). The concentration of protein was allowed to be a free parameter in the equilibrium equation, to determine the amount of “active” protein. The final Kas was calculated as a weighted average of three to ten independent titrations, with the weights taken as the reciprocals of the squares of the numerical standard deviations. Numerical nonlinear least-square regression analysis was performed using ORGIN 6.0 (Microcal Software Inc., USA).
The binding affinities of eukaryotic eIF4E for various cap analogs were determined by fluorescence quenching. This biophysical test allows one to predict the potential efficacy of cap analogs in translation. Those having higher affinities for eIF4E than the unmodified cap analog (m^7GpppG) are expected to be better recognized by the translational machinery, leading to higher translational efficiencies. They also are expected to compete more effectively with unmodified mRNA when free cap dinucleotides are used to inhibit translation. See generally E. Grudzien-Nogalska et al., “Synthesis of anti-reverse cap analogs (ARCAs) and their applications in mRNA translation and stability,” Methods Enzymol., vol. 431, pp. 203-227 (2007).

[1] = target: cap-dependent translation of luciferase mRNA in reticulocyte lysate; experiment: Inhibition of cap-dependent translation in vitro by free cap analogs; assay type: biochemical, rabbit
Method: In vitro translation reactions were performed in 12.5 μl for 60 min at 30° C. under conditions favorable for cap-dependent translation. In some cases, the reaction mixture was incubated for 60 min at 30° C. prior to adding the dinucleotide cap analog (inhibitor) and m2^7,3′-OGppG-capped luciferase mRNA to start translation. In other cases, to analyze biological stability, the cap analog was incubated in the translation mixture for 60 min at 30° C. prior to adding the luciferase mRNA to start translation. A typical reaction mixture contained 56% reticulocyte lysate, the 20 “standard” amino acids (0.01 mM each), MgCl2 (1.2 mM), potassium acetate (170 mM), RiboLock Ribonuclease Inhibitor (0.32 U/μl), cap analog solution ( 1/10 of total reaction volume), and m2^7,3′-OGpppG-capped luciferase RNA. […] Reactions were performed with cap analog concentrations ranging from 0.12 to 100 μM. Luciferase activity was measured in a luminometer. […] The program OriginPro8 (OriginLab) was used for curve fitting with the equation qLUC=Z/(1+I/IC50)+N, where qLUC is the activity of luciferase synthesized in the presence of cap analog, Z is the activity of luciferase synthesized in the absence of cap analog, N is the activity of luciferase synthesized in a cap-independent manner, and I is the cap analog concentration.
Two type of experiments were carried out. In one set of experiments (condition A), a cap analog was added to the translation system together with luciferase mRNA. In the other set of experiments (condition B), the cap analog was incubated in the translation system for 60 min before addition of mRNA. […] There was a correlation between the resistance to hydrolysis by DcpS and the stability of analogs in the translation system.

Human DcpS = target: T1, Human DcpS (Homo sapiens, UniProt Q96C86); experiment: Assay of susceptibility to DcpS (RP HPLC); assay type: biochemical
T1 construct: made in house; host or cells: Escherichia coli
T1 sequence (Q96C86 1-337): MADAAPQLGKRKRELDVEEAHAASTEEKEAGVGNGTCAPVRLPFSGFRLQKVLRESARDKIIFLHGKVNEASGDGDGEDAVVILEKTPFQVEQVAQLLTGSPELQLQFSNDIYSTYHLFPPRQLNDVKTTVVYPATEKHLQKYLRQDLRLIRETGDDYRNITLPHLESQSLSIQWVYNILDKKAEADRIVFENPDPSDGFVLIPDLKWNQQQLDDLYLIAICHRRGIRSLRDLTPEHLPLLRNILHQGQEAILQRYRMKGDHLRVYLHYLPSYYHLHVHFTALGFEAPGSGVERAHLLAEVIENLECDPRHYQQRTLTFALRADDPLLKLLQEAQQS
Method: Human DcpS was expressed in Escherichia coli as described in L. Cohen et al., “Nematode m^7GpppG and m3^2,2,7GpppG decapping: activities in Ascaris embryos and characterization of C. elegans scavenger DcpS,” RNA, vol. 10, pp. 1609-1624 (2004). A 15 μM solution of the protein in 20 mM Tris buffer, pH 7.5, containing 50 mM KCl, 0.2 mM EDTA, 1 mM DTT, 0.5 mM PMSF, and 20% glycerol was stored at −80° C. until used. Enzymatic reactions were carried out at 30° C. in 500 μl of 50 mM Tris-HCl, pH 7.9, containing 20 mM MgCl2 and 60 mM (NH4)2SO4. A 40 μM solution of the selected cap analog was treated with 5.0 μl of DcpS for 120 min. At times of 10, 30, 60, and 120 min, a 100-μl sample was collected from the reaction mixture and deactivated by incubation at 90° C. for 2 min. Samples were analyzed without further treatment by analytical RP HPLC with a linear gradient of methanol in 0.1 M KH2PO4, pH 6.0, from 0-50% over 15 min.

[2] = system: rabbit reticulocyte lysate system; experiment: In vitro translation efficiency of capped luciferase mRNA with 31-base poly(A) tail, method II transcripts; assay type: biochemical; conditions: for Translation efficiency in comparison to m^7GpppG-LUC-(A)31 mRNA, Experiment No. 4: experiment 4; for Translation efficiency in comparison to m^7GpppG-LUC-(A)31 mRNA, Experiment No. 5: experiment 5; for Translation efficiency in comparison to m^7GpppG-LUC-(A)31 mRNA, Mean: mean of experiments
Method: Capped, polyadenylated luciferase mRNAs were synthesized in vitro by PCR from a dsDNA template that contained the SP6 promoter, the 5′-UTR sequence of rabbit β-globin mRNA, the entire firefly luciferase coding region, and 31 adenosine residues. A typical transcription reaction mixture (40 μl) contained SP6 transcription buffer (Fermentas), 0.7 ug of DNA template, 1 U/μl RiboLock Ribonuclease Inhibitor (Fermentas), 0.5 mM each of ATP, CTP, and UTP, 0.1 mM GTP, and 0.5 mM dinucleotide cap analog. The reaction mixture was incubated at 37° C. for 5 min before addition of SP6 RNA polymerase (Fermentas) to a final concentration of 1 U/μl, and incubation then continued for 45 min at 37° C. The reaction mixture was treated with DNase as in Method I. RNA transcripts were purified with NucAway Spin Columns (Ambion). The integrity of transcripts and quantitation was performed as in Method I.
(§1) A micrococcal nuclease-treated rabbit reticulocyte lysate system (Flexi Rabbit Reticulocyte Lysate System, Promega) was used for in vitro translation. Translation reactions were performed in 10 μl for 60 min at 30° C. A typical reaction mixture contained 40% reticulocyte lysate, the 20 “standard” amino acids (0.01 mM each), MgCl2 (1.2 mM), potassium acetate (170 mM), and mRNA (five different concentrations of each transcript, ranging from 0.25 to 4 μg/ml). Luciferase activity was measured in a luminometer (Glomax, Promega). Linear regression was used to fit the data points (luciferase activity versus concentration of mRNA transcript), and translational efficiency was defined as the slope of this line. The relative translational efficiencies of the test mRNAs were compared to that of m^7GpppG-capped luciferase mRNA, the latter being defined as 1.0.

[3] = system: rabbit reticulocyte lysate system; experiment: In vitro translation efficiency of capped luciferase mRNA, method I transcripts; assay type: biochemical
Method: A DNA template for in vitro transcription was synthesized by PCR from the plasmid SP6p-5′UTR β-globin-LUCiferase. The template contained the SP6 promoter followed by the 5′-UTR sequence of rabbit β-globin mRNA and the entire firefly luciferase mRNA coding region. A typical in vitro transcription reaction mixture (50 μl) contained SP6 transcription buffer (Fermentas, cat. no. EP0131), 2 μg of DNA template, 2 U/μl RiboLock Ribonuclease Inhibitor (Fermentas), 2 mM each of ATP, CTP, and UTP, 0.1 mM GTP, and 1 mM dinucleotide cap analog. The reaction mixture was incubated at 37° C. for 5 min before the addition of SP6 RNA polymerase (Fermentas) to a final concentration of 2 U/μl. After 30 min of incubation at 37° C., GTP was added to a final concentration of 1 mM, and the reaction continued for an additional 90 min. The reaction mixtures were then treated with 1 U of DNase RQ1 (RNAse-free, Promega) per μg of template DNA in transcription buffer at 37° C. for 20 min. RNA transcripts were purified on DEPC-treated Sephadex G-50 spin columns (Pharmacia). The integrity of transcripts was confirmed by electrophoresis on a non-denaturating, 1% agarose gel. Concentrations were determined spectrophotometrically. The transcripts were stored at −80° C. until used.
as §1

[4] = cap analog added together with luciferase mRNA, read-out: Inhibition of in vitro translation (IC50), condition A
[5] = cap analog incubated in translation system 60 min before addition of mRNA, read-out: Inhibition of in vitro translation (IC50), condition B
[6] = 40 μM cap analog, 30° C., up to 120 min

eIF4E, sequence (P63073 28-217 limits assumed): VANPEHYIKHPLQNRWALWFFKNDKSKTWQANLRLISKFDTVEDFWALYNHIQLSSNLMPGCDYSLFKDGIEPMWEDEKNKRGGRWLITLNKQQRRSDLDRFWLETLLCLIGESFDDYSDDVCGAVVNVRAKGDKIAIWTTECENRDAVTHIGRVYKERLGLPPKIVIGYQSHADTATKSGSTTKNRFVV

SMILES	Cap analog/eIF4E affinity (KAS) (eIF4E) [μM^−1]	IC50 [1, 4] [µM]	IC50 [1, 5] [µM]	Susceptibility to DcpS (Human DcpS; [6])	Translation efficiency in comparison to m^7GpppG-LUC-(A)31 mRNA, Experiment No. 4 [2]	Translation efficiency in comparison to m^7GpppG-LUC-(A)31 mRNA, Experiment No. 5 [2]	Translation efficiency in comparison to m^7GpppG-LUC-(A)31 mRNA, Mean [2]	Cap analog-eIF4E affinity (KAS) (eIF4E; Table 3) [μM^−1]	Translation efficiency in comparison with m^7GpppG-LUC mRNA, Experiment No. 1 ([3]; experiment 1)	Translation efficiency in comparison with m^7GpppG-LUC mRNA, Experiment No. 2 ([3]; experiment 2)	Translation efficiency in comparison with m^7GpppG-LUC mRNA, Experiment No. 3 ([3]; experiment 3)	Translation efficiency in comparison with m^7GpppG-LUC mRNA, Experiment No. 4 ([3]; experiment 4)	Translation efficiency in comparison with m^7GpppG-LUC mRNA, Mean ([3]; mean of experiments)	In vitro translational efficiency, method I ([3]; relative to m^7GpppG-capped luciferase mRNA = 1.0)	Susceptibility to DcpS (Human DcpS; Table 3)	In vitro translational efficiency (method II) ([2]; Table 3, relative to m^7GpppG-capped mRNA = 1.0)	Translation efficiency in comparison to m^7GpppG-LUC-(A)31 mRNA, Experiment No. 1 ([2]; experiment 1)	Translation efficiency in comparison to m^7GpppG-LUC-(A)31 mRNA, Experiment No. 2 ([2]; experiment 2)	Translation efficiency in comparison to m^7GpppG-LUC-(A)31 mRNA, Experiment No. 3 ([2]; experiment 3)
[BH3-]P(=O)(OC[C@H]1O[C@@H](n2cnc3c(=O)[nH]c(N)nc32)[C@H](O)[C@@H]1O)OP(=O)(O)OP(=O)(O)OC[C@H]1O[C@@H](n2c[n+](C)c3c(=O)[nH]c(N)nc32)[C@H](O)[C@@H]1O (single isomer, unassigned) [m^7GpppBH3G (D1), m^7GpppBH3G]	14.5 ± 0.2	3.2 ± 0.3	9.2 ± 1.9	hydrolyzed	–	–	–	–	–	–	–	–	–	–	–	–	–	–	–
[BH3-]P(=O)(OC[C@H]1O[C@@H](n2cnc3c(=O)[nH]c(N)nc32)[C@H](O)[C@@H]1O)OP(=O)(O)OP(=O)(O)OC[C@H]1O[C@@H](n2c[n+](C)c3c(=O)[nH]c(N)nc32)[C@H](O)[C@@H]1O (single isomer, unassigned) [m^7GpppBH3G (D2), m^7GpppBH3G]	14.4 ± 0.6	3.1 ± 0.2	16.4 ± 0.8	hydrolyzed	–	–	–	–	–	–	–	–	–	–	–	–	–	–	–
[BH3-]P(=O)(OC[C@H]1O[C@@H](n2cnc3c(=O)[nH]c(N)nc32)[C@H](O)[C@@H]1O)OP(=O)(O)OP(=O)(O)OC[C@H]1O[C@@H](n2c[n+](C)c3c(=O)[nH]c(N)nc32)[C@H](OC)[C@@H]1O (single isomer, unassigned) [m2^7,2′-OGpppBH3G (D1), m2^7,2′-OGpppBH3G]	15.3 ± 0.2	–	–	hydrolyzed	2.38	3.28	2.83	–	–	–	–	–	–	–	–	–	–	–	–
CO[C@H]1[C@@H](O)[C@H]([n+]2cn(C)c3c(=O)[nH]c(N)nc32)O[C@@H]1COP(=O)([O-])OP(=O)(O)OP(=O)(O)OC[C@H]1O[C@@H](n2cnc3c(=O)[nH]c(N)nc32)[C@H](O)[C@@H]1O [m2^7,3′-OGpppG, 7-methyl(3′-O-methyl)GpppG, reference compound]	10.2 ± 0.3	–	–	hydrolyzed	1.77	2.08	1.82	10.2 ± 0.3	2.53	2.92	2.96	2.50	2.73	2.73 ± 0.25	hydrolyzed	1.82 ± 0.20	1.98	1.66	1.61
[BH3-]P(=O)(OC[C@H]1O[C@@H](n2cnc3c(=O)[nH]c(N)nc32)[C@H](O)[C@@H]1O)OP(=O)(O)OP(=O)(O)OC[C@H]1O[C@@H](n2c[n+](C)c3c(=O)[nH]c(N)nc32)[C@H](OC)[C@@H]1O (single isomer, unassigned) [m2^7,2′-OGpppBH3G (D2), m2^7,2′-OGpppBH3G]	14.4 ± 0.2	–	–	hydrolyzed	1.76	1.92	1.84	–	–	–	–	–	–	–	–	–	–	–	–
